From PMC12400508 (RSC Advances, 2025)
≈ marks a conversion by molar mass, not a printed value. Where two headings read alike, the source gives them in different places.

Assays:
[1] = test system: Mtb mc^26230; test: microbe, parasite or virus in culture; type: cell-based, Mycobacterium tuberculosis; conditions: for MIC: Mycobacterium tuberculosis; for MIC (MIC99): Mtb mc^26230, 6 days, Table 1 and text
[2] = test system: THP-1 cells; test: Cytotoxicity assay in THP-1 cells; type: cell-based, Human; conditions: for IC50: Homo sapiens, THP-1, 72 h, read-out: IC50 (reduces the viability of THP-1 cells by 50%); for SI, selectivity index (IC50/MIC): THP-1 IC50 / Mtb MIC
[3] = test system: mc^26230 pMV261; test: microbe, parasite or virus in culture; type: cell-based; conditions: Mycobacterium tuberculosis, read-out: MIC, pMV261
[4] = read-out: MIC, mc^26230 (parental strain)

Row | Structure (SMILES) | MIC [1] [µg/mL] | MIC ([1]; read-out: MIC, Wild-type) [µg/mL] | MIC [1, 4] [µg/mL] | IC50 [2] [µg/mL] | SI, selectivity index (IC50/MIC) [2] | MIC [3] [µg/mL] | MIC (MIC99) [1] [µg/mL]
1 | Cc1ccccc1/C=C1\SC(NNC(=O)c2ccncc2)=NC1=O [9d] | 1.56 (≈ 4.61 µM) | 1.56 (≈ 4.61 µM) | 1.56 (≈ 4.61 µM) | 21 (≈ 62.1 µM) | 14 | 3.12 (≈ 9.22 µM) | –
2 | CO[C@H]1/C=C/O[C@@]2(C)Oc3c(C)c(O)c4c(O)c(c(/C=N/N5CCN(C)CC5)c(O)c4c3C2=O)NC(=O)/C(C)=C\C=C\[C@H](C)[C@H](O)[C@@H](C)[C@@H](O)[C@@H](C)[C@H](OC(C)=O)[C@@H]1C [RIF, reference compound] | – | 0.039 (≈ 0.0474 µM) | – | – | – | 0.039 (≈ 0.0474 µM) | –
3 | O=C1N=C(NNC(=O)c2ccncc2)S/C1=C\c1ccccc1Cl [9p] | – | – | 25 (≈ 69.7 µM) | – | – | – | –
4 | O=C1N=C(NNC(=O)c2ccncc2)S/C1=C\c1ccc(Cl)cc1 [9n] | 12.5 (≈ 34.8 µM) | 12.5 (≈ 34.8 µM) | 12.5 (≈ 34.8 µM) | – | – | 25 (≈ 69.7 µM) | 12.5 (≈ 34.8 µM)
5 | O=C1N=C(NNC(=O)c2ccncc2)S/C1=C\c1ccccc1F [9l] | – | – | 25 (≈ 73 µM) | – | – | – | –
6 | NNC(=O)c1ccncc1 [INH, isoniazid, reference compound] | 0.039 (≈ 0.284 µM) | 0.078 (≈ 0.569 µM) | 0.039 (≈ 0.284 µM) | > 100 | >100 | 0.078 (≈ 0.569 µM) | –
7 | O=C1N=C(NNC(=O)c2ccncc2)S/C1=C\c1ccc(F)cc1 [9j] | 12.5 (≈ 36.5 µM) | 12.5 (≈ 36.5 µM) | 12.5 (≈ 36.5 µM) | 18 (≈ 52.6 µM) | 1.4 | 12.5 (≈ 36.5 µM) | 12.5 (≈ 36.5 µM)
